Source: PubChem BioAssay AID256 (DTP/NCI, 2004)
Several values for one entry are separate records, joined by “and”; a condition that tells them apart may be missing. Identical values can stand only once. Inconclusive results and toxic doses are left out.

System: CD2F1 mice, L1210 leukemia ip, survival T/C
Experiment: NCI In Vivo Anticancer Drug Screen. Data for tumor model L1210 Leukemia (intraperitoneal) in CD2F1 (CDF1) mice
Conditions: higher = longer survival
How it was run: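 Implant tumor; dose compound or vehicle; measure endpoint in both groups; report treated divided by control.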

[1] = endpoint: mean survival time, dose: 100.0 mg/kg/injection, schedule: Q04DX003 (ip), vehicle: saline with Tween-80
[2] = endpoint: mean survival time, dose: 200.0 mg/kg/injection, schedule: Q04DX003 (ip), vehicle: saline with Tween-80
[3] = endpoint: mean survival time, dose: 400.0 mg/kg/injection, schedule: Q04DX003 (ip), vehicle: saline with Tween-80
[4] = endpoint: mean survival time, dose: 100.0 mg/kg/injection, schedule: Q01DX001 (ip), vehicle: saline
[5] = endpoint: mean survival time, dose: 50.0 mg/kg/injection, schedule: Q01DX009 (ip), vehicle: saline with Tween-80
[6] = endpoint: mean survival time, dose: 100.0 mg/kg/injection, schedule: Q01DX001 (ip), vehicle: saline with Tween-80
[7] = endpoint: mean survival time, dose: 200.0 mg/kg/injection, schedule: Q01DX001 (ip), vehicle: saline with Tween-80
[8] = endpoint: mean survival time, dose: 100.0 mg/kg/injection, schedule: Q01DX009 (ip), vehicle: saline with Tween-80
[9] = endpoint: mean survival time, dose: 200.0 mg/kg/injection, schedule: Q01DX009 (ip), vehicle: saline with Tween-80

For `O=C(NO)Nc1ccccc1`, the T/C (endpoint: mean survival time, dose: 8.0 mg/kg/injection, schedule: Q03HX024 (ip), vehicle: other) was 101 % of control, the T/C (endpoint: mean survival time, dose: 16.0 mg/kg/injection, schedule: Q03HX024 (ip), vehicle: other) was 101 % of control and the T/C (endpoint: mean survival time, dose: 32.0 mg/kg/injection, schedule: Q03HX024 (ip), vehicle: other) was 101 % of control. The T/C (endpoint: mean survival time, dose: 62.0 mg/kg/injection, schedule: Q03HX024 (ip), vehicle: saline with Tween-80) was 89 % of control, the T/C (endpoint: mean survival time, dose: 64.0 mg/kg/injection, schedule: Q03HX024 (ip), vehicle: other) was 95 % of control and the T/C (endpoint: mean survival time, dose: 93.0 mg/kg/injection, schedule: Q03HX024 (ip), vehicle: saline with Tween-80) was 86 % of control. For the same molecule, the T/C (endpoint: mean survival time, dose: 128.0 mg/kg/injection, schedule: Q03HX024 (ip), vehicle: other) was 92 % of control.

For `Cc1cccnc1NC1=NCCO1`, the T/C [1] was 101 % of control, the T/C [2] was 98 % of control and the T/C [3] was 98 % of control.

In the case of `CS(=O)(=O)Nc1ccc(Nc2c3ccccc3nc3cc([N+](=O)[O-])ccc23)cc1`, the T/C (endpoint: mean survival time, dose: 7.0 mg/kg/injection, schedule: Q01DX009 (ip), vehicle: saline) is reported as 237 % of control, the T/C (endpoint: mean survival time, dose: 10.0 mg/kg/injection, schedule: Q01DX009 (ip), vehicle: saline) is reported as 155 % of control and the T/C (endpoint: mean survival time, dose: 12.5 mg/kg/injection, schedule: Q01DX001 (ip), vehicle: saline) is reported as 175 % of control. The T/C (endpoint: mean survival time, dose: 25.0 mg/kg/injection, schedule: Q01DX001 (ip), vehicle: saline) was 195 % of control, the T/C (endpoint: mean survival time, dose: 50.0 mg/kg/injection, schedule: Q01DX001 (ip), vehicle: saline) was 170 % of control and the T/C [4] was 116 % of control.

With `COc1cccc(N=Nc2c(N)nc(N)nc2N)c1` the T/C [5] was 97 % of control.

`C=C(C)CSc1ccccc1` was tested, and the T/C (endpoint: mean survival time, dose: 5.0 mg/kg/injection, schedule: Q01DX001 (ip), vehicle: saline) was 97 % of control, the T/C (endpoint: mean survival time, dose: 10.0 mg/kg/injection, schedule: Q01DX001 (ip), vehicle: saline) was 97 % of control and the T/C (endpoint: mean survival time, dose: 20.0 mg/kg/injection, schedule: Q01DX001 (ip), vehicle: saline) was 97 % of control. The T/C (endpoint: mean survival time, dose: 40.0 mg/kg/injection, schedule: Q01DX001 (ip), vehicle: saline) was 97 % of control, the T/C (endpoint: mean survival time, dose: 80.0 mg/kg/injection, schedule: Q01DX001 (ip), vehicle: saline) was 97 % of control and the T/C [4] was 95 % of control. For the same molecule, the T/C (endpoint: mean survival time, dose: 200.0 mg/kg/injection, schedule: Q01DX001 (ip), vehicle: saline) was 103 % of control.

In the case of `O=C(O/N=C(\CN1CCOCC1)c1ccc(Cl)cc1)c1ccccc1`, the T/C (endpoint: mean survival time, dose: 100.0 mg/kg/injection, schedule: Q04DX003 (ip), vehicle: Klucel (hydroxypropylcellulose) (HPC)) is reported as 86 % of control, the T/C (endpoint: mean survival time, dose: 200.0 mg/kg/injection, schedule: Q04DX003 (ip), vehicle: Klucel (hydroxypropylcellulose) (HPC)) is reported as 90 % of control and the T/C (endpoint: mean survival time, dose: 400.0 mg/kg/injection, schedule: Q04DX003 (ip), vehicle: Klucel (hydroxypropylcellulose) (HPC)) is reported as 94 % of control.

For `c1ccc(C2=C(c3ccccc3)C(c3ccccc3)(c3ccccc3)c3ccccc32)cc1`, the T/C [1] was 101 % of control, the T/C [2] was 98 % of control and the T/C [3] was 98 % of control.

In the case of `CC(=O)OC1CC2CCC1(C)C2(C)C` (centres undefined), the T/C [1] is reported as 101 % of control and the T/C [2] is reported as 95 % of control.

For `CCOc1ccc(-n2c(O)c(N=Nc3ccccc3)c(=O)n(-c3ccccc3)c2=S)cc1`, the T/C [6] was 92 % of control and the T/C [7] was 102 % of control.

`NC1CCCCCCC1O` (centres undefined) was tested, and the T/C (endpoint: mean survival time, dose: 5.0 mg/kg/injection, schedule: Q01DX001 (ip), vehicle: saline sonified) was 114 % of control, the T/C (endpoint: mean survival time, dose: 10.0 mg/kg/injection, schedule: Q01DX001 (ip), vehicle: saline sonified) was 92 % of control and the T/C (endpoint: mean survival time, dose: 20.0 mg/kg/injection, schedule: Q01DX001 (ip), vehicle: saline sonified) was 100 % of control.

`NC(=S)NCc1ccccc1` was tested, and the T/C [8] was 89 % of control, the T/C [1] was 105 % of control and the T/C [9] was 91 % of control. For the same molecule, the T/C [2] was 101 % of control and the T/C [3] was 112 % of control.

With `CNC(C1CCCCC1)C(C)OC(=O)c1ccc(N)cc1` (centres undefined) the T/C (endpoint: mean survival time, dose: 75.0 mg/kg/injection, schedule: Q01DX001 (ip), vehicle: saline) was 100 % of control.

With `O=S(=O)(N/N=C/c1ccncc1)c1ccccc1` the T/C (endpoint: mean survival time, dose: 12.5 mg/kg/injection, schedule: Q04DX003 (ip), vehicle: water) was 98 % of control, the T/C (endpoint: mean survival time, dose: 25.0 mg/kg/injection, schedule: Q04DX003 (ip), vehicle: water) was 98 % of control and the T/C (endpoint: mean survival time, dose: 50.0 mg/kg/injection, schedule: Q04DX003 (ip), vehicle: water) was 104 % of control. For the same molecule, the T/C (endpoint: mean survival time, dose: 100.0 mg/kg/injection, schedule: Q04DX003 (ip), vehicle: water) was 106 % of control, the T/C (endpoint: mean survival time, dose: 200.0 mg/kg/injection, schedule: Q04DX003 (ip), vehicle: water) was 112 % of control and the T/C (endpoint: mean survival time, dose: 400.0 mg/kg/injection, schedule: Q04DX003 (ip), vehicle: water) was 108 % of control.

With `CN(C)c1nc(N(C)C)nc(N(C)C)n1` the T/C (endpoint: mean survival time, dose: 12.5 mg/kg/injection, schedule: Q01DX009 (ip), vehicle: saline with Tween-80) was 93 % of control and 103 % of control, the T/C (endpoint: mean survival time, dose: 20.0 mg/kg/injection, schedule: Q01DX009 (ip), vehicle: Klucel (hydroxypropylcellulose) (HPC)) was 106 % of control and the T/C (endpoint: mean survival time, dose: 25.0 mg/kg/injection, schedule: Q01DX009 (ip), vehicle: saline with Tween-80) was 97 % of control and 102 % of control. The T/C (endpoint: mean survival time, dose: 40.0 mg/kg/injection, schedule: Q01DX009 (ip), vehicle: Klucel (hydroxypropylcellulose) (HPC)) was 102 % of control, the T/C (endpoint: mean survival time, dose: 50.0 mg/kg/injection, schedule: Q01DX001 (ip), vehicle: saline with Tween-80) was 96 % of control and the T/C [5] was 97 % of control and 100 % of control. For the same molecule, the T/C (endpoint: mean survival time, dose: 80.0 mg/kg/injection, schedule: Q01DX009 (ip), vehicle: Klucel (hydroxypropylcellulose) (HPC)) was 106 % of control, the T/C [6] was 104 % of control and the T/C [8] was 96 % of control and 97 % of control. For the same molecule, the T/C (endpoint: mean survival time, dose: 160.0 mg/kg/injection, schedule: Q01DX009 (ip), vehicle: Klucel (hydroxypropylcellulose) (HPC)) was 100 % of control, the T/C [7] was 97 % of control and the T/C [9] was 100 % of control and 103 % of control. The T/C (endpoint: mean survival time, dose: 400.0 mg/kg/injection, schedule: Q01DX001 (ip), vehicle: saline with Tween-80) was 104 % of control, the T/C (endpoint: median survival time, dose: 8.0 mg/kg/injection, schedule: Q03HX024 (ip), vehicle: Klucel (hydroxypropylcellulose) (HPC)) was 97 % of control and the T/C (endpoint: median survival time, dose: 16.0 mg/kg/injection, schedule: Q03HX008 (ip), vehicle: Klucel (hydroxypropylcellulose) (HPC)) was 96 % of control. For the same molecule, the T/C (endpoint: median survival time, dose: 16.0 mg/kg/injection, schedule: Q03HX016 (ip), vehicle: Klucel (hydroxypropylcellulose) (HPC)) was 96 % of control, the T/C (endpoint: median survival time, dose: 16.0 mg/kg/injection, schedule: Q03HX024 (ip), vehicle: Klucel (hydroxypropylcellulose) (HPC)) was 104 % of control and the T/C (endpoint: median survival time, dose: 32.0 mg/kg/injection, schedule: Q01DX009 (ip), vehicle: Klucel (hydroxypropylcellulose) (HPC)) was 108 % of control. The T/C (endpoint: median survival time, dose: 32.0 mg/kg/injection, schedule: Q03HX008 (ip), vehicle: Klucel (hydroxypropylcellulose) (HPC)) was 100 % of control, the T/C (endpoint: median survival time, dose: 32.0 mg/kg/injection, schedule: Q03HX016 (ip), vehicle: Klucel (hydroxypropylcellulose) (HPC)) was 100 % of control and the T/C (endpoint: median survival time, dose: 32.0 mg/kg/injection, schedule: Q03HX024 (ip), vehicle: Klucel (hydroxypropylcellulose) (HPC)) was 111 % of control. The T/C (endpoint: median survival time, dose: 64.0 mg/kg/injection, schedule: Q01DX009 (ip), vehicle: Klucel (hydroxypropylcellulose) (HPC)) was 107 % of control, the T/C (endpoint: median survival time, dose: 64.0 mg/kg/injection, schedule: Q04DX003 (ip), vehicle: Klucel (hydroxypropylcellulose) (HPC)) was 98 % of control and the T/C (endpoint: median survival time, dose: 128.0 mg/kg/injection, schedule: Q01DX001 (ip), vehicle: Klucel (hydroxypropylcellulose) (HPC)) was 97 % of control. For the same molecule, the T/C (endpoint: median survival time, dose: 128.0 mg/kg/injection, schedule: Q01DX009 (ip), vehicle: Klucel (hydroxypropylcellulose) (HPC)) was 102 % of control, the T/C (endpoint: median survival time, dose: 128.0 mg/kg/injection, schedule: Q04DX003 (ip), vehicle: Klucel (hydroxypropylcellulose) (HPC)) was 109 % of control and the T/C (endpoint: median survival time, dose: 128.0 mg/kg/injection, schedule: Q08DX002 (ip), vehicle: Klucel (hydroxypropylcellulose) (HPC)) was 98 % of control. For the same molecule, the T/C (endpoint: median survival time, dose: 256.0 mg/kg/injection, schedule: Q01DX001 (ip), vehicle: Klucel (hydroxypropylcellulose) (HPC)) was 98 % of control, the T/C (endpoint: median survival time, dose: 256.0 mg/kg/injection, schedule: Q04DX003 (ip), vehicle: Klucel (hydroxypropylcellulose) (HPC)) was 114 % of control and the T/C (endpoint: median survival time, dose: 256.0 mg/kg/injection, schedule: Q08DX002 (ip), vehicle: Klucel (hydroxypropylcellulose) (HPC)) was 98 % of control.

`CCCC(CC)(C[NH-])C[NH-].[Cl][Pt+2][Cl]` was tested, and the T/C (endpoint: mean survival time, dose: 6.25 mg/kg/injection, schedule: Q04DX003 (ip), vehicle: saline) was 120 % of control and 109 % of control, the T/C (endpoint: mean survival time, dose: 12.5 mg/kg/injection, schedule: Q04DX003 (ip), vehicle: saline) was 121 % of control and 109 % of control and the T/C (endpoint: mean survival time, dose: 25.0 mg/kg/injection, schedule: Q04DX003 (ip), vehicle: saline) was 114 % of control. For the same molecule, the T/C (endpoint: mean survival time, dose: 100.0 mg/kg/injection, schedule: Q04DX003 (ip), vehicle: saline) was 158 % of control and the T/C (endpoint: mean survival time, dose: 200.0 mg/kg/injection, schedule: Q04DX003 (ip), vehicle: saline) was 114 % of control and 105 % of control.
